We go through 17 molecules from ChEMBL document CHEMBL5360622, “Leucettinibs, a Class of DYRK/CLK Kinase Inhibitors Inspired by the Marine Sponge Natural Product Leucettamine B” (J Med Chem, 2023).

The structures appear in SMILES notation.

Experiment [1] addresses Dual specificity protein kinase CLK4 (Homo sapiens, UniProt Q9HAZ1).
For experiment [2], the target named is Cyclin-dependent kinase 5/CDK5 activator 1 (Homo sapiens, UniProt Q00535). Format: cell-based, Sf9.
The target in experiment [3] is Dual specificity protein kinase CLK2 (Homo sapiens, UniProt P49760).
Experiment [4] has as its target Dual specificity protein kinase CLK3 (Homo sapiens, UniProt P49761). Format: cell-based, Sf9.
The target of experiment [5] is Glycogen synthase kinase-3 beta (Homo sapiens, UniProt P49841). Format: cell-based, Sf9.
The target of experiment [6] is T1, Dual specificity tyrosine-phosphorylation-regulated kinase 4 (Homo sapiens, UniProt Q9NR20).
T1 sequence (Q9NR20 whole entry): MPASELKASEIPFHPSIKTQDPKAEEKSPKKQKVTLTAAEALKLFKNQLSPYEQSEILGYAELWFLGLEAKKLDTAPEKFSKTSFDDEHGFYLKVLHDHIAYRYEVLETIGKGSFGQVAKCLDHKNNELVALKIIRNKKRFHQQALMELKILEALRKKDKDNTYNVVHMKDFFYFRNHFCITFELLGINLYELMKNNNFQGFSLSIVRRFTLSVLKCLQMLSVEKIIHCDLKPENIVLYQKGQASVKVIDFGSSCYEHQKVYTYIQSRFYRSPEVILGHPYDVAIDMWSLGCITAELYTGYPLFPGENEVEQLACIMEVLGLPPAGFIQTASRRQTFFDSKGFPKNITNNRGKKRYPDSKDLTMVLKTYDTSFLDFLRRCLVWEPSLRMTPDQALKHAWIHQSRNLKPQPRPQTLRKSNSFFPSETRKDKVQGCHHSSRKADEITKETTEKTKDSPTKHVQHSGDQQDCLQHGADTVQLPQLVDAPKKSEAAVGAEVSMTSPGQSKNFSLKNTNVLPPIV

Experiment [7] deals with T2, Dual specificity tyrosine-phosphorylation-regulated kinase 3 (Homo sapiens, UniProt O43781).
T2 sequence (O43781 whole entry): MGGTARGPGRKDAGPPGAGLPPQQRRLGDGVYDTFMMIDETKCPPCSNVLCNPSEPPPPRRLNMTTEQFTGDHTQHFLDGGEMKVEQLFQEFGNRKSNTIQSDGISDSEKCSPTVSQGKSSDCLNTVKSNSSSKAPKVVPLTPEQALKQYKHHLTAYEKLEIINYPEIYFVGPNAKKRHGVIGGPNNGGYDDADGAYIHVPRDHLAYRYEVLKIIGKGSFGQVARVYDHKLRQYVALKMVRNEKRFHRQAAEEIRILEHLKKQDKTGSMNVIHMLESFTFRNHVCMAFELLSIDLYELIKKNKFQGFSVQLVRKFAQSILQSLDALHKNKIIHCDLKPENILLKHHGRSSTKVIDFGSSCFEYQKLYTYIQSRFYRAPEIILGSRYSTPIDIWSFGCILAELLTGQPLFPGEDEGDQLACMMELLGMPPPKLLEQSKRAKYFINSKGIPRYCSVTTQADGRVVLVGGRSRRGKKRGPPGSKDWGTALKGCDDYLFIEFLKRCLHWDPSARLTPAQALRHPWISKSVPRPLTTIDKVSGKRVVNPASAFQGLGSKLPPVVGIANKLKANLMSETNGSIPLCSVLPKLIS

Experiment [8] has as its target T3, Dual specificity tyrosine-phosphorylation-regulated kinase 2 (Homo sapiens, UniProt Q92630).
T3 sequence (Q92630 whole entry): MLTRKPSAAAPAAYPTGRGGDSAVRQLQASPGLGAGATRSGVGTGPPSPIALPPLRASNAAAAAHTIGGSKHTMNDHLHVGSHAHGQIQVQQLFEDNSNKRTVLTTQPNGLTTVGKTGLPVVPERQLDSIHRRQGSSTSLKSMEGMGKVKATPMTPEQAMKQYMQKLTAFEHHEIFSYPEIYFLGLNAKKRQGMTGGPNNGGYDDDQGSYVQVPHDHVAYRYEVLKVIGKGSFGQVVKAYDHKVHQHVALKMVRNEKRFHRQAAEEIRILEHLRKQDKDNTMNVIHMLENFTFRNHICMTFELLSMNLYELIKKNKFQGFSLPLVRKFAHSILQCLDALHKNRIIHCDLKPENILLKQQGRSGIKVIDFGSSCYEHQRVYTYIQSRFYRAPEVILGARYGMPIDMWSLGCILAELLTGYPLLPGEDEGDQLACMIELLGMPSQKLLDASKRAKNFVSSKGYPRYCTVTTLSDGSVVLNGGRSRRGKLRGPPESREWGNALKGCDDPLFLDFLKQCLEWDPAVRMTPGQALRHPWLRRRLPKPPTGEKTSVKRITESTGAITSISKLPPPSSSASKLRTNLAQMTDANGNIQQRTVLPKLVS

Experiment [9] concerns the target Casein kinase I isoform epsilon (Homo sapiens, UniProt P49674).

Cyclin-dependent kinase 5/CDK5 activator 1, sequence (Q00535 whole entry): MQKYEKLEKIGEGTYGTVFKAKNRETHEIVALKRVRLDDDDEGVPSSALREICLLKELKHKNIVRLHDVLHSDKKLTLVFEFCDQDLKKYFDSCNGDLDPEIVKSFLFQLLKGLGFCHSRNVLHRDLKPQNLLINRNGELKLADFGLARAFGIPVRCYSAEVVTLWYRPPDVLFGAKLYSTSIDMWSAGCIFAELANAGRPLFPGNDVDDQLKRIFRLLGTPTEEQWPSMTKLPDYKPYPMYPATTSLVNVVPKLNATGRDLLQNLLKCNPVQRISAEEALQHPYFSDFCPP
Cyclin-dependent kinase 5/CDK5 activator 1, sequence (Q15078 whole entry, further chain): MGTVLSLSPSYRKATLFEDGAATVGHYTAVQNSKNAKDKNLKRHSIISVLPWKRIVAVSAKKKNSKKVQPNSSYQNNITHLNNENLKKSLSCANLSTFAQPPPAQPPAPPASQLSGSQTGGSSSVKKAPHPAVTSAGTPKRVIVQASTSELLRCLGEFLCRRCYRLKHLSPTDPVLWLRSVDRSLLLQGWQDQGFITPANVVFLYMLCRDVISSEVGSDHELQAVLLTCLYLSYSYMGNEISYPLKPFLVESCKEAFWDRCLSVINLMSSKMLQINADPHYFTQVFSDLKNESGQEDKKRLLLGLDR
Dual specificity protein kinase CLK2, sequence (P49760 whole entry): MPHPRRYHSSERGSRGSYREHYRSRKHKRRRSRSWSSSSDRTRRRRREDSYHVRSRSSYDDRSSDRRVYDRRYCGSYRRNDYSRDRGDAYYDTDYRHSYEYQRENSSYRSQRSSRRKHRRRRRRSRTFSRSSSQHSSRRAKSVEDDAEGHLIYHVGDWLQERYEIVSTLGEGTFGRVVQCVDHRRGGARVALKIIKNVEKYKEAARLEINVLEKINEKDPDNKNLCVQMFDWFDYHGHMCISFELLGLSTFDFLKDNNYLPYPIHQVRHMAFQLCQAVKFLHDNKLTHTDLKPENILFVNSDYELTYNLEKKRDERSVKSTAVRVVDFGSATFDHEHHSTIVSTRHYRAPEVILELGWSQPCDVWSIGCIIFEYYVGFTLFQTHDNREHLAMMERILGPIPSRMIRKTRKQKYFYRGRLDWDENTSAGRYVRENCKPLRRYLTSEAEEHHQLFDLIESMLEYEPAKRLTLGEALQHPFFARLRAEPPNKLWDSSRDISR
Dual specificity protein kinase CLK3, sequence (P49761 whole entry): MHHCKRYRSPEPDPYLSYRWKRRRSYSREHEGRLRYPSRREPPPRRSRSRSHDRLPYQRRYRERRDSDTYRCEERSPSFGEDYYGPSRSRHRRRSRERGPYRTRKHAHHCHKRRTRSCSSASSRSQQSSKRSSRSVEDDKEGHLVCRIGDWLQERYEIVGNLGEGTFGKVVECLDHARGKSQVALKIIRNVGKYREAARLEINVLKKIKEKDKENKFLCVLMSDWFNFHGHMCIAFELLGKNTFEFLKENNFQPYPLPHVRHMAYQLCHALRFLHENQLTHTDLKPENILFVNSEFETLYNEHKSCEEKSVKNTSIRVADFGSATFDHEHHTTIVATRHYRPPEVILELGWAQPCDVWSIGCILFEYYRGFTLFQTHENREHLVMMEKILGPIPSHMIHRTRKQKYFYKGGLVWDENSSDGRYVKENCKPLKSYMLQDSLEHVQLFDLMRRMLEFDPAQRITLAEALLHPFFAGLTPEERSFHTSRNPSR
Casein kinase I isoform epsilon, sequence (P49674 whole entry, canonical isoform): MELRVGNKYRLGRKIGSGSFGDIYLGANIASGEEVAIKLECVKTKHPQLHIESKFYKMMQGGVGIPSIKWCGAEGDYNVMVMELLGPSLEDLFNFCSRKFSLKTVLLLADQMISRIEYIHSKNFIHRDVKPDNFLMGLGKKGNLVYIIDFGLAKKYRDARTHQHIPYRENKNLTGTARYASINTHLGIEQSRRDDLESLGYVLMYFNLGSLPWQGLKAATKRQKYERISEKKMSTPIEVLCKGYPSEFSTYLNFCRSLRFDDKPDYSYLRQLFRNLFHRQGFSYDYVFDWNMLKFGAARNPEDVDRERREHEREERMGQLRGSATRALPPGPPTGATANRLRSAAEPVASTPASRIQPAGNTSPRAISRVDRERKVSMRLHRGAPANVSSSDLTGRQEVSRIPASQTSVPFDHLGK
Glycogen synthase kinase-3 beta, sequence (P49841 whole entry): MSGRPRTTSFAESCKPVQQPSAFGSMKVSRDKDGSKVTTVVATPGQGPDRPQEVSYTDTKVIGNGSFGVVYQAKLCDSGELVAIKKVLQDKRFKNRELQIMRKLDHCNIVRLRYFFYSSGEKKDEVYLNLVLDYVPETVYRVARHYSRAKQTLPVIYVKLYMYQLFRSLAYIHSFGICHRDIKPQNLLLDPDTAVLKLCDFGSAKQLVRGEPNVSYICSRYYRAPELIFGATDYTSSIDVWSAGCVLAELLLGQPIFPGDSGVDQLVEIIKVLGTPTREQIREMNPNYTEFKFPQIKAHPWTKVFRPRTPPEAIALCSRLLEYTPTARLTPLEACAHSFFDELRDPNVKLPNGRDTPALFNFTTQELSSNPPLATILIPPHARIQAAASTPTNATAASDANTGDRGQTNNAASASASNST
Dual specificity protein kinase CLK4, sequence (Q9HAZ1 whole entry): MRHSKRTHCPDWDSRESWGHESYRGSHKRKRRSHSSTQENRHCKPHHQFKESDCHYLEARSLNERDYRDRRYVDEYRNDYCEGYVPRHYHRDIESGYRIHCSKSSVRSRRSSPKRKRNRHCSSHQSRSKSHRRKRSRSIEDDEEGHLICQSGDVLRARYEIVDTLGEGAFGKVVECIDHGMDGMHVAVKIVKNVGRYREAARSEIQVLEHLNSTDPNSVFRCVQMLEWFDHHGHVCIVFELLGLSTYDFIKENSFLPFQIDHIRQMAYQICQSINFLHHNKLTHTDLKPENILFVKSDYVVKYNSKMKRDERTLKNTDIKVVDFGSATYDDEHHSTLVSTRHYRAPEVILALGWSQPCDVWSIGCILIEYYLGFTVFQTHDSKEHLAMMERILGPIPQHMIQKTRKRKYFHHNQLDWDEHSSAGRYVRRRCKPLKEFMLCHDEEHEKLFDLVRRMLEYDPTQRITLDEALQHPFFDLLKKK

For the molecule `O=C1NC(NCC2CCOCC2)=N/C1=C\c1ccc2ncsc2c1`, the IC50 is 0.012 µM in [1]; greater than 10 µM in [2]; 0.094 µM in experiment [3]; 0.698 µM in experiment [4]; greater than 10 µM in [5]; 1.29 µM in experiment [6]. In addition, the figures for the IC50 in [7] and in experiment [8] were 1.13 µM and 0.811 µM, respectively.

Consider `CN1CCC(CNC2=N/C(=C\c3ccc4ncsc4c3)C(=O)N2)CC1`, for which the IC50 in experiment [9] is greater than 10 µM; in [1], 1.5 µM; in experiment [2], greater than 10 µM; in experiment [3], 3.66 µM; in experiment [4], greater than 10 µM; in experiment [5], greater than 10 µM. The figures for the IC50 in [6], in experiment [7] and in experiment [8] were greater than 10 µM, 1.59 µM and greater than 10 µM, respectively.

Regarding `Cc1nc2ccc(/C=C3\N=C(NC45CC6CC(CC(C6)C4)C5)NC3=O)cc2s1`, the IC50 in experiment [9] is greater than 10 µM; in experiment [1], 0.02 µM; in experiment [2], greater than 10 µM; in [3], 1.34 µM; in experiment [4] it was greater than 10 µM; in experiment [5], greater than 10 µM. The values for the IC50 in experiment [6], in experiment [7] and in experiment [8] were greater than 10 µM, 0.324 µM and 0.666 µM, respectively.

As for `O=C1CC[C@H](NC2=N/C(=C\c3ccc4ncsc4c3)C(=O)N2)CN1`, the IC50 was greater than 10 µM in [9]; 0.022 µM in experiment [1]; greater than 10 µM in experiment [2]; 0.469 µM in experiment [3]; 1.16 µM in experiment [4]; 8.18 µM in experiment [5]. Besides, the IC50 in [6] stood at 3.26 µM; in experiment [7] it was 0.346 µM; in experiment [8], 0.664 µM.

In the case of `CN1CCCC(NC2=N/C(=C\c3ccc4ncsc4c3)C(=O)N2)C1=O` (racemic), the IC50 is greater than 10 µM in [9]; 0.027 µM in [1]; greater than 10 µM in [2]; 0.416 µM in experiment [3]; 2.81 µM in [4]; greater than 10 µM in experiment [5]. In addition, the IC50 was 6.08 µM in experiment [6], 2.98 µM in [7] and 3.3 µM in experiment [8].

In the case of `CC(C)(C)C(=O)OC12CC3CC(CC(NC4=N/C(=C\c5ccc6ncsc6c5)C(=O)N4)(C3)C1)C2`, the IC50 in experiment [9] is greater than 10 µM; in [1], 0.436 µM; in experiment [2] it was greater than 10 µM; in experiment [3] it was 1.31 µM; in [4], greater than 10 µM; in experiment [5], greater than 10 µM. For the same molecule, the IC50 in experiment [6], in experiment [7] and in experiment [8] was greater than 10 µM throughout.

Take `O=C1NC(NC2COC2)=N/C1=C\c1ccc2ncsc2c1`: the IC50 in experiment [9] was greater than 10 µM; in experiment [1], 0.014 µM; in [2], greater than 10 µM; in experiment [3], 0.614 µM; in [4] it was 0.491 µM; in experiment [5], 5.92 µM. Besides, the IC50 in experiment [6] came out at 2.16 µM; in [7] it was 1.43 µM; in experiment [8], 0.574 µM.

On to `COCC(Cc1ccccc1)NC1=N/C(=C\c2ccc3ncsc3c2)C(=O)N1` (stereo not drawn), for which the IC50 in [9] was greater than 10 µM; in experiment [1], 0.012 µM; in [2], greater than 10 µM; in experiment [3], 0.099 µM; in experiment [4] it was 0.808 µM; in [5], 4.25 µM. Further, the IC50 in experiment [6] stood at 0.374 µM; in experiment [7], 2.38 µM; in experiment [8], 0.4 µM.

In the case of `CC(=O)N1CCc2ccc(NC3=N/C(=C\c4ccc5ncsc5c4)C(=O)N3)cc21`, the IC50 was greater than 10 µM in experiment [9]; 0.021 µM in experiment [1]; greater than 10 µM in experiment [2]; 0.869 µM in experiment [3]; 2.24 µM in experiment [4]; 1.83 µM in experiment [5]. In addition, the results for the half-inhibitory concentration (IC50) in [6], in experiment [7] and in experiment [8] were 0.705 µM, 0.443 µM and 0.257 µM, respectively.

For the molecule `Cn1ncc2cccc(NC3=N/C(=C\c4ccc5ncsc5c4)C(=O)N3)c21`, the 50% inhibitory concentration (IC50) in experiment [9] is greater than 10 µM; in experiment [1] it was 0.073 µM; in experiment [2], greater than 10 µM; in [3], 0.698 µM; in experiment [4], 1.55 µM; in experiment [5] it was 3.68 µM. Further, the values for the IC50 in experiment [6], in experiment [7] and in [8] were 4.82 µM, 4.05 µM and 5.63 µM, respectively.

Consider `CC1(C)CNC(=O)C1NC1=N/C(=C\c2ccc3ncsc3c2)C(=O)N1` (racemic), for which the IC50 in experiment [9] is greater than 10 µM; in experiment [1] it was 0.028 µM; in [2] it was greater than 10 µM; in experiment [3], 0.923 µM; in experiment [4], 4.48 µM; in [5] it was greater than 10 µM. Also, the IC50 was 3.47 µM in experiment [6], 2.02 µM in experiment [7] and 0.854 µM in [8].

Consider `CN1CCCC(NC2=N/C(=C\c3ccc4ncsc4c3)C(=O)N2)C1` (racemic), for which the half-maximal inhibitory concentration (IC50) was greater than 10 µM in experiment [9]; 0.18 µM in experiment [1]; greater than 10 µM in experiment [2]; 0.771 µM in experiment [3]; 1.23 µM in experiment [4]; greater than 10 µM in experiment [5]. Moreover, the IC50 in experiment [6] is 7.04 µM; in [7], 0.887 µM; in [8] it was 4.76 µM.

For `CCCCCCc1ccc(NC2=N/C(=C\c3ccc4ncsc4c3)C(=O)N2)cc1`, the IC50 in experiment [9] is greater than 10 µM; in [1] it was 3.13 µM; in experiment [2] it was greater than 10 µM; in experiment [3], 14.2 µM; in experiment [4], greater than 10 µM; in experiment [5] it was greater than 10 µM. The IC50 in [6], in experiment [7] and in [8] was greater than 10 µM throughout.

For `Cc1ccc(CNC2=N/C(=C\c3ccc4ncsc4c3)C(=O)N2)o1`, the IC50 in experiment [1] was 0.024 µM; in experiment [2], greater than 10 µM; in [3], 0.127 µM; in [4] it was 0.722 µM; in experiment [5], 2.81 µM; in experiment [6], 1.63 µM. For the same molecule, the IC50 in experiment [7] turned out to be 1.8 µM; in experiment [8] it was 1.89 µM.

For the molecule `Cc1ccc(NC2=N/C(=C\c3ccc4ncsc4c3)C(=O)N2)cc1F`, the IC50 is greater than 10 µM in [9]; 0.071 µM in [1]; greater than 10 µM in experiment [2]; 3.52 µM in experiment [3]; greater than 10 µM in experiment [4]; greater than 10 µM in experiment [5]. The IC50 is 3.06 µM in [7] and 6.53 µM in experiment [8].

With `COC(=O)[C@@H](CC(C)C)NC1=N/C(=C\c2ccc3ncsc3c2)C(=O)N1`, the half-inhibitory concentration (IC50) in experiment [1] was 0.034 µM; in [2] it was greater than 10 µM; in [3], 0.378 µM; in [4] it was 0.852 µM; in experiment [5] it was 1.34 µM; in [6] it was 2.26 µM. Besides, the IC50 in experiment [7] amounted to 5.07 µM; in experiment [8], 2.37 µM.

With `COC(=O)[C@H](CC(C)C)NC1=N/C(=C\c2ccc3ncsc3c2)C(=O)N1`, the IC50 in experiment [1] is 0.017 µM; in experiment [2], greater than 10 µM; in [3], 0.219 µM; in experiment [4] it was 1.7 µM; in experiment [5] it was 4.1 µM; in experiment [6], 0.821 µM. Also, the IC50 amounted to 1.54 µM in experiment [7] and 0.903 µM in [8].
